The target in assay [1] is T1, NAD-dependent protein deacetylase sirtuin-3, mitochondrial (Homo sapiens, UniProt Q9NTG7).
T1 sequence (Q9NTG7 whole entry): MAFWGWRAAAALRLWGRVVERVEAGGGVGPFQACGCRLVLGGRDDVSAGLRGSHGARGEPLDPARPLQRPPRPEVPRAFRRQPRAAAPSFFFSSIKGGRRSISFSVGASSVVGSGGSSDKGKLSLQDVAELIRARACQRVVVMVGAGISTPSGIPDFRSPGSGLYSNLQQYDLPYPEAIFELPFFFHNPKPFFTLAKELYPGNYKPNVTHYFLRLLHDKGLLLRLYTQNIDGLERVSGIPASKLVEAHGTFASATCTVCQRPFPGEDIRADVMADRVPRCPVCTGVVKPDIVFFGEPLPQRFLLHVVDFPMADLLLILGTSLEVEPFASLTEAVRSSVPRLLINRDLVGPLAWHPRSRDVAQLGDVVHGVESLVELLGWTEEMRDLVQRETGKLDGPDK
Nature of the assay: Inhibition of SIRT3 (unknown origin).

Assay [2] addresses T2, NAD-dependent protein deacetylase sirtuin-1 (Homo sapiens) (UniProt Q96EB6).
T2 sequence (whole entry): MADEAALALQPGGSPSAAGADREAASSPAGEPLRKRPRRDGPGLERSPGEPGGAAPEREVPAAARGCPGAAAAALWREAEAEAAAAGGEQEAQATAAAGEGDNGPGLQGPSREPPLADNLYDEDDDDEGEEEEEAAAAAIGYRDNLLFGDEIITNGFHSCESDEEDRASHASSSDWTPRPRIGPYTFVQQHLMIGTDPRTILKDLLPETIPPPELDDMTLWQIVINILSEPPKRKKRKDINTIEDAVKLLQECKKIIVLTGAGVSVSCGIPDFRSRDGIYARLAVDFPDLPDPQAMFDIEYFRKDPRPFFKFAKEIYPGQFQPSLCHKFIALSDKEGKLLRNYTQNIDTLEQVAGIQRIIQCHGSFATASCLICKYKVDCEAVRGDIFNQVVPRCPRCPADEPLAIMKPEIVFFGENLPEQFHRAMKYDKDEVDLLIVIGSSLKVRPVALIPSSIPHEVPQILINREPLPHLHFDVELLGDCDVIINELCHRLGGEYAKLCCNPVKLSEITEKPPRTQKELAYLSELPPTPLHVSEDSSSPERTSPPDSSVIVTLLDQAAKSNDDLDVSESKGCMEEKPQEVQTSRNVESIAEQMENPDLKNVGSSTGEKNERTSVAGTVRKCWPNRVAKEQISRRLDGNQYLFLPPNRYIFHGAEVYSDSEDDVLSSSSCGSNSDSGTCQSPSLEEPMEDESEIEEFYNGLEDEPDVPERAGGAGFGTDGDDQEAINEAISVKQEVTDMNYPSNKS
Kind of assay: Non-competitive inhibition of N-terminal hexa-His-tagged human SIRT1 (156 to 664 residues) expressed in Escherichia coli BL21 (DE3) assessed as decrease in initial velocity V0 at 0.47 to 1.98 uM using Abz-GVLKacAYNO2GY-NH2 as substrate in presence of varying level of NAD+ by Lineweaver-burk plot analysis. The conditions noted are these: dose 0.47-1.98 µM.

Assay [3] concerns the target T3, NAD-dependent protein deacetylase sirtuin-1 (Homo sapiens, UniProt Q96EB6).
T3 sequence (Q96EB6 whole entry): T2 sequence (whole entry)
Nature of the assay: Inhibition of wild type N-terminal hexa-His-tagged human SIRT1 (156 to 664 residues) expressed in Escherichia coli BL21 (DE3) assessed as dissociation equilibrium constant using Abz-GVLKacAYNO2GY-NH2 as substrate in presence of varying level of NAD+ by Lineweaver-burk plot analysis.

Assay [4] has as its target NAD-dependent protein deacetylase sirtuin-1 (Homo sapiens, UniProt Q96EB6, F273L). Nature of the assay: Inhibition of N-terminal hexa-His-tagged human SIRT1 F273L mutant (156 to 664 residues) expressed in Escherichia coli BL21 (DE3) assessed as dissociation equilibrium constant using Abz-GVLKacAYNO2GY-NH2 as substrate in presence of varying level of NAD+ by Lineweaver-burk plot analysis.

For assay [5], the target named is T4, NAD-dependent protein deacetylase sirtuin-2 (Homo sapiens, UniProt Q8IXJ6).
T4 sequence (Q8IXJ6 whole entry): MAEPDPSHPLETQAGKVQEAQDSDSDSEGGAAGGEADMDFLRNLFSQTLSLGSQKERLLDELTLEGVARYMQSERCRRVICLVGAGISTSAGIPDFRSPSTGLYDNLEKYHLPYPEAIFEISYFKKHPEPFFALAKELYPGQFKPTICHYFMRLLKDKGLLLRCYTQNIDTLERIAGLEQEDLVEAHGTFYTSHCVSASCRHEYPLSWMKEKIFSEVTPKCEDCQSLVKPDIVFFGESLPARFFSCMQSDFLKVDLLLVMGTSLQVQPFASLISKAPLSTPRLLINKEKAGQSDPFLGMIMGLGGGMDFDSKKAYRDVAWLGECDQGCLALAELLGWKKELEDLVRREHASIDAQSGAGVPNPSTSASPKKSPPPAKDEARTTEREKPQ
Kind of assay: Inhibition of GST-fusion tagged human SIRT2 (34 to 356 residues) expressed in Escherichia coli BL21 (DE3) using Abz-GVLKacAYNO2GY-NH2 peptide as substrate incubated for 30 mins in presence of NAD+ by fluorescence microplate reader assay.

For assay [6], the target named is T2, NAD-dependent protein deacetylase sirtuin-1 (Homo sapiens). Nature of the assay: Inhibition of SIRT1 in human SH-SY5Y cells assessed as increase in acetylated p53 level at 10 uM measured after 72 hrs in presence of ATRA by Western blot analysis. Format: cell-based. On the technique in general: A western blot detects proteins with antibodies after separation by electrophoresis.

The target is the same in assay [7]. Kind of assay: Mixed-type inhibition of N-terminal hexa-His-tagged human SIRT1 (156 to 664 residues) expressed in Escherichia coli BL21 (DE3) assessed as decrease in Km at 0.47 to 1.98 uM using varying levels Abz-GVLKacAYNO2GY-NH2 peptide as substrate in presence of NAD+ by Lineweaver-burk plot analysis. To be noted: dose 0.47-1.98 µM.
Assay [8] deals with NAD-dependent protein deacetylase sirtuin-1 (Homo sapiens, UniProt Q96EB6, N346A). Nature of the assay: Inhibition of N-terminal hexa-His-tagged human SIRT1 N346A mutant (156 to 664 residues) expressed in Escherichia coli BL21 (DE3) assessed as dissociation equilibrium constant using Abz-GVLKacAYNO2GY-NH2 as substrate in presence of varying level of NAD+ by Lineweaver-burk plot analysis.
NAD-dependent protein deacetylase sirtuin-1 (Homo sapiens, UniProt Q96EB6, N346A), sequence (Q96EB6 2-747 N346A limits assumed): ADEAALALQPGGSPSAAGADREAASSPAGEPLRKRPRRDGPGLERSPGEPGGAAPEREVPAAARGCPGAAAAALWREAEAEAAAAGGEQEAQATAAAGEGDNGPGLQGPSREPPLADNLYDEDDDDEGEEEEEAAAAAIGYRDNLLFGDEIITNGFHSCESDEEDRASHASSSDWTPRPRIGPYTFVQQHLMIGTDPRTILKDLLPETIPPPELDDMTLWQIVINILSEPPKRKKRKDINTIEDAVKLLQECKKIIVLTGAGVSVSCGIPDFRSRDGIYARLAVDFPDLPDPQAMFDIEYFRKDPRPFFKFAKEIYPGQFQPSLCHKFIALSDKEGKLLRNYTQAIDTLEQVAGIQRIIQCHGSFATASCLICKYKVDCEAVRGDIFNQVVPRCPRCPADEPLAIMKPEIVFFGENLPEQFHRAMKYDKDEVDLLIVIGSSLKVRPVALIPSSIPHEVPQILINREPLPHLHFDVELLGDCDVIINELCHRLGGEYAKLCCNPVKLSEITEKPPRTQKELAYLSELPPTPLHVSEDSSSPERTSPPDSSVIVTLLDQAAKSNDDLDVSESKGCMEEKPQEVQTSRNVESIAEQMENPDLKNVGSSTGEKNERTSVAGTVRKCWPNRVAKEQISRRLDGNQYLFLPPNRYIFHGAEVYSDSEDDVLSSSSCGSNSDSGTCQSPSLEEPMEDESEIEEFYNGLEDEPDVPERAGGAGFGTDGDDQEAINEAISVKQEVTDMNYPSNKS

Assay [9] addresses NAD-dependent protein deacylase sirtuin-6 (Homo sapiens, UniProt Q8N6T7). Kind of assay: Inhibition of recombinant N-terminal hexa-His-tagged SIRT6 (3 to 318 residues) (unknown origin) expressed in Escherichia coli BL21 (DE3) using RHKKac-AMC as substrate incubated for 2 hrs in presence of NAD+ by fluorescence microplate reader assay.
Assay [10] concerns the target T2, NAD-dependent protein deacetylase sirtuin-1 (Homo sapiens). Nature of the assay: Mixed-type inhibition of N-terminal hexa-His-tagged human SIRT1 (156 to 664 residues) expressed in Escherichia coli BL21 (DE3) assessed as decrease in initial velocity V0 at 0.47 to 1.98 uM using varying levels Abz-GVLKacAYNO2GY-NH2 peptide as substrate in presence of NAD+ by Lineweaver-burk plot analysis. The conditions noted are these: dose 0.47-1.98 µM.

Assay [11] is described as follows: Inhibition of N-terminal hexa-His-tagged human SIRT1 D348A mutant (156 to 664 residues) expressed in Escherichia coli BL21 (DE3) assessed as dissociation equilibrium constant using Abz-GVLKacAYNO2GY-NH2 as substrate in presence of varying level of NAD+ by Lineweaver-burk plot analysis.
Assay [12] concerns the target NAD-dependent protein deacylase sirtuin-5, mitochondrial (Homo sapiens, UniProt Q9NXA8). Nature of the assay: Inhibition of N-terminal 8His-tagged human SIRT5 (34 to 302 residues) expressed in Escherichia coli Rosetta2 (DE3) using Abz-GVLKacAYNO2GY-NH2 peptide as substrate incubated for 30 mins in presence of NAD+ by fluorescence microplate reader assay. The conditions noted are these: read-out: IC50.

Assay [13] addresses T3, NAD-dependent protein deacetylase sirtuin-1. Kind of assay: Inhibition of N-terminal hexa-His-tagged human SIRT1 (156 to 664 residues) expressed in Escherichia coli BL21 (DE3) assessed as deacetylation of Abz-labeled acetyl peptide using Abz-GVLKacAYNO2GY-NH2 peptide as substrate incubated for 30 mins in presence of NAD+ by fluorescence microplate reader assay. The conditions noted are these: read-out: IC50.

Assay [14] concerns the target T2, NAD-dependent protein deacetylase sirtuin-1 (Homo sapiens). Kind of assay: Non-competitive inhibition of N-terminal hexa-His-tagged human SIRT1 (156 to 664 residues) expressed in Escherichia coli BL21 (DE3) assessed as effect on Km at 0.47 to 1.98 uM using Abz-GVLKacAYNO2GY-NH2 as substrate in presence of varying level of NAD+ by Lineweaver-burk plot analysis. The conditions noted are these: dose 0.47-1.98 µM.

Assay [15] concerns the target NAD-dependent protein deacetylase sirtuin-1 (Homo sapiens, UniProt Q96EB6, F414A). Nature of the assay: Inhibition of N-terminal hexa-His-tagged human SIRT1 F414A mutant (156 to 664 residues) expressed in Escherichia coli BL21 (DE3) assessed as dissociation equilibrium constant using Abz-GVLKacAYNO2GY-NH2 as substrate in presence of varying level of NAD+ by Lineweaver-burk plot analysis.

The target of assay [16] is NAD-dependent protein deacetylase sirtuin-1 (Homo sapiens, UniProt Q96EB6, I347A). Nature of the assay: Inhibition of N-terminal hexa-His-tagged human SIRT1 I347A mutant (156 to 664 residues) expressed in Escherichia coli BL21 (DE3) assessed as dissociation equilibrium constant using Abz-GVLKacAYNO2GY-NH2 as substrate in presence of varying level of NAD+ by Lineweaver-burk plot analysis.
NAD-dependent protein deacetylase sirtuin-1 (Homo sapiens, UniProt Q96EB6, I347A), sequence (Q96EB6 2-747 I347A limits assumed): as the sequence (Q96EB6 2-747 N346A limits assumed) above, with A345N, I346A counted along it

The target in assay [17] is T3, NAD-dependent protein deacetylase sirtuin-1. Kind of assay: Inhibition of His-tagged SIRT1 (unknown origin) expressed in Escherichia coli codon plus (DE3) using acetylated p53 as substrate.

Results on three compounds are retold here after ChEMBL document CHEMBL4680375 (ACS Med Chem Lett, 2021).

Calls of active or inactive are those of the source. The calls are words filed in the database; no cut-off is given here.

NAD-dependent protein deacylase sirtuin-5, mitochondrial, sequence (Q9NXA8 whole entry, the tested form may be a part): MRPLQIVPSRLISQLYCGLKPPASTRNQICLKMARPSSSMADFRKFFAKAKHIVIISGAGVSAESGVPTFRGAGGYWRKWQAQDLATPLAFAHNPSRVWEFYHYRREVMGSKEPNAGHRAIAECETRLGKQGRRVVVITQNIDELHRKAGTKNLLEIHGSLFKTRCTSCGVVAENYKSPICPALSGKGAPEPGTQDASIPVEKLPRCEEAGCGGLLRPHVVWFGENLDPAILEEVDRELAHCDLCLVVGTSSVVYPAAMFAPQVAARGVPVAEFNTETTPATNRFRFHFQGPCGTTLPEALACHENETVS
NAD-dependent protein deacetylase sirtuin-1 (Homo sapiens, UniProt Q96EB6, F273L), sequence (Q96EB6 2-747 F273L limits assumed): as the sequence (Q96EB6 2-747 N346A limits assumed) above, with F272L, A345N counted along it
NAD-dependent protein deacylase sirtuin-6, sequence (Q8N6T7 whole entry, the tested form may be a part): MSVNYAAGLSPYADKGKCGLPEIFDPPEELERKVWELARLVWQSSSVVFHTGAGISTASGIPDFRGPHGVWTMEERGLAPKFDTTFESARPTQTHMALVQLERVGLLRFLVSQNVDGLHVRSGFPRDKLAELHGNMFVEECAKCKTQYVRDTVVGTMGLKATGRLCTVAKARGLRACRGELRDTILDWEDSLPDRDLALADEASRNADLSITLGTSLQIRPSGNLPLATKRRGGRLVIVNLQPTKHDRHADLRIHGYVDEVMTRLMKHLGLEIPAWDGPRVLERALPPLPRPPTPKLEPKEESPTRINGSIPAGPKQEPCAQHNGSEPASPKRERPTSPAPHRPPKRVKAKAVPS
NAD-dependent protein deacetylase sirtuin-1 (Homo sapiens, UniProt Q96EB6, F414A), sequence (Q96EB6 2-747 F414A limits assumed): as the sequence (Q96EB6 2-747 N346A limits assumed) above, with A345N, F413A counted along it

With `CC1=CCC(C(=O)/N=C2\CC=C(S(=O)(=O)O)c3cc(S(=O)(=O)O)cc(S(=O)(=O)O)c32)=C/C1=N/C(=O)C1=CC=C/C(=N\C(=O)/N=C2\C=CC=C(C(=O)/N=C3/CC(C(=O)/N=C4\CC=C(S(=O)(=O)O)c5cc(S(=O)(=O)O)cc(S(=O)(=O)O)c54)=CC=C3C)C2)C1`, it took 22000 nM to reach half-maximal inhibition in [1] (IC50).
Consider `COc1cc(C=C2C(=O)OC(c3ccccc3)OC2=O)cc(Br)c1O` (configuration not stated), for which the inhibition result in [2], in assay [7], in [10] and in assay [14] was “Active” throughout. Besides, the Ki (usually a measure of affinity in units of concentration, obtained from inhibition or displacement) in assay [3] came out at 100 nM; in [4], 650 nM; in assay [8], 1940 nM; in [11], 7060 nM; in assay [15], 18200 nM; in assay [16] it was 710 nM. Further, the IC50 (as a rule, the midpoint of a concentration-inhibition curve) in assay [5] was 54000 nM; in assay [9], “Not Active”; in assay [12], 19800 nM; in [13], 1310 nM. Moreover, in assay [6], the “increase in acetylated p53 level (qualitative)” value was “Active”.
Regarding `CCC(Sc1nnc2c(n1)[nH]c1ccccc12)C(=O)N1c2ccccc2Sc2ccccc21` (configuration not stated), the half-inhibitory concentration (IC50) in assay [17] turned out to be 100 nM.
